Reference: the supplement of paper PMC11208160

Experiment: recombinant barcode read abundance after kanamycin selection (control-corrected) (log10(CPM+1)); higher = more efficient recombination; sequences stand for … in AGTGCAGAGAAAATCGGCCAGTTTTCTCTGCCTGCAGTCCGCATGCCGT…AGATTTATGCAGCGGACTGCCTTTCTCCCAAAGTGATAAACCGGACAGTATCATGGACCGGTTTTCCCGGTAATCCGTATTTGCAAGGTTGGTTTCACT; site = the 11-nt target
Method in brief: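 Recombination efficiency comes from barcode counts at recombinant junctions, converted to counts per million, averaged and corrected against the control. Values appear as log10(CPM+1). They were obtained from a pooled E. coli screen in which each oligo paired a target with an IS621 bridge RNA target-binding loop, and cells were plated in duplicate on chloramphenicol/ampicillin LB agar or on chloramphenicol/ampicillin/kanamycin with 0.1 mM IPTG.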
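Note: IS621 recombinase and bridge RNA in Escherichia coli cells.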

CCGTCGACTTGGGTTCTAACCTGTTGCCT (site ACGTCCACTAG)
recombinant barcode read abundance (log10): 0.0141

CCGTCGACTTGGGTTCTAACCTGTTGCCT (site CCGTCGACTAG)
recombinant barcode read abundance (log10): 0.197

CCGTCTACTTGGGTTCTAACCTGTTGCTG (site CCGTCTACTAA)
recombinant barcode read abundance (log10): 0.019

CCGTCTACTTGGGTTCTAACCTGTTGCTG (site CCGTCTACTCA)
recombinant barcode read abundance (log10): 0.38

CCGTCTACTTGGGTTCTAACCTGTTGCTG (site CCGTCTACTGA)
recombinant barcode read abundance (log10): 0.0602

CCGTCTACTTGGGTTCTAACCTGTTGCTG (site CCGTCTACTTA)
recombinant barcode read abundance (log10): 0.111

CCGTGGACTTGGGTTCTAACCTGTTGCCT (site CCGTGGACTAG)
recombinant barcode read abundance (log10): 1.75

CCGTGGACTTGGGTTCTAACCTGTTGCCT (site CCGTGGCCTAA)
recombinant barcode read abundance (log10): 0.254

CCTAAGACTTGGGTTCTAACCTGTTGCCG (site CCTAAGACTAG)
recombinant barcode read abundance (log10): 0.343

CCTAAGACTTGGGTTCTAACCTGTTGCCG (site CCTAAGACTCG)
recombinant barcode read abundance (log10): 0.263

CCTAAGACTTGGGTTCTAACCTGTTGCCG (site CCTAAGACTGG)
recombinant barcode read abundance (log10): 0.148

CCTAAGACTTGGGTTCTAACCTGTTGCCG (site CCTAAGACTTG)
recombinant barcode read abundance (log10): 0.0897

CCTAATGCTTGGGTTCTAACCTGTTGCCT (site CCAAAGGCTAG)
recombinant barcode read abundance (log10): 0.0782

CCTAATGCTTGGGTTCTAACCTGTTGCCT (site CCTAATGCTAG)
recombinant barcode read abundance (log10): 0.0345

CCTACCGCTTGGGTTCTAACCTGTTGCTT (site CCTACCGCTAA)
recombinant barcode read abundance (log10): 0.424

CCTACCGCTTGGGTTCTAACCTGTTGCTT (site CGTACCGCTAG)
recombinant barcode read abundance (log10): 0.0456

CCTCACTCTTGGGTTCTAACCTGTTGCGG (site CCTCACTCTCC)
recombinant barcode read abundance (log10): 1.66

CCTCACTCTTGGGTTCTAACCTGTTGCGG (site CCTCAGTCTTC)
recombinant barcode read abundance (log10): 0

CCTCGCACTTGGGTTCTAACCTGTTGCCT (site CATCGCACTAG)
recombinant barcode read abundance (log10): 0.0533

CCTCGCACTTGGGTTCTAACCTGTTGCCT (site CCTCGCACTAG)
recombinant barcode read abundance (log10): 0.458

CCTCGCACTTGGGTTCTAACCTGTTGCCT (site CGTCGCACTAG)
recombinant barcode read abundance (log10): 0.133

CCTCGCACTTGGGTTCTAACCTGTTGCCT (site CTTCGCACTAG)
recombinant barcode read abundance (log10): 0.0293

CCTCGGGCTTGGGTTCTAACCTGTTGCAG (site CATCGGGCTCT)
recombinant barcode read abundance (log10): 0.0896

CCTCGGGCTTGGGTTCTAACCTGTTGCAG (site CCTCGGGCTCT)
recombinant barcode read abundance (log10): 1.23

CCTCGGGCTTGGGTTCTAACCTGTTGCAG (site CGTCGGGCTCT)
recombinant barcode read abundance (log10): 0.011

CCTCGGGCTTGGGTTCTAACCTGTTGCAG (site CTTCGGGCTCT)
recombinant barcode read abundance (log10): 0.101

CCTGACTCTTGGGTTCTAACCTGTTGCAC (site CCTGACTCTGT)
recombinant barcode read abundance (log10): 2.05

CCTGACTCTTGGGTTCTAACCTGTTGCAC (site GAACTGCCTAA)
recombinant barcode read abundance (log10): 0.0359

CCTGACTCTTGGGTTCTAACCTGTTGCAT (site CCTGACTCTAT)
recombinant barcode read abundance (log10): 2.19

CCTGACTCTTGGGTTCTAACCTGTTGCAT (site TAGTGGCCTTA)
recombinant barcode read abundance (log10): 0.221

CCTGAGACTTGGGTTCTAACCTGTTGCAG (site CCTGAGACTCT)
recombinant barcode read abundance (log10): 1.37

CCTGAGACTTGGGTTCTAACCTGTTGCAG (site CCTGGCACTCT)
recombinant barcode read abundance (log10): 0.297

CCTGCGACTTGGGTTCTAACCTGTTGCAC (site AAGCACCCTCA)
recombinant barcode read abundance (log10): 0.185

CCTGCGACTTGGGTTCTAACCTGTTGCAC (site CCTGCGACTGT)
recombinant barcode read abundance (log10): 0.219

CCTGCGGCTTGGGTTCTAACCTGTTGCCT (site CCTGCGACTAG)
recombinant barcode read abundance (log10): 0.0127

CCTGCGGCTTGGGTTCTAACCTGTTGCCT (site CCTGCGGCTAG)
recombinant barcode read abundance (log10): 0.15

CCTGGAACTTGGGTTCTAACCTGTTGCTT (site CCTGGAACTAA)
recombinant barcode read abundance (log10): 0.418

CCTGGAACTTGGGTTCTAACCTGTTGCTT (site CCTGGAGCTAT)
recombinant barcode read abundance (log10): 0.333

CCTGGACCTTGGGTTCTAACCTGTTGCGT (site CCTGGACCTAC)
recombinant barcode read abundance (log10): 2.06

CCTGGACCTTGGGTTCTAACCTGTTGCGT (site CCTGGGCCTAA)
recombinant barcode read abundance (log10): 0.0265

CCTGGAGCTTGGGTTCTAACCTGTTGCAT (site CCTGGAACTAA)
recombinant barcode read abundance (log10): 0.266

CCTGGAGCTTGGGTTCTAACCTGTTGCAT (site CCTGGAGCTAT)
recombinant barcode read abundance (log10): 0.654

CCTGGCACTTGGGTTCTAACCTGTTGCAG (site CCTGAGACTCT)
recombinant barcode read abundance (log10): 0

CCTGGCACTTGGGTTCTAACCTGTTGCAG (site CCTGGCACTCT)
recombinant barcode read abundance (log10): 1.96

CCTGGGACTTGGGTTCTAACCTGTTGCTA (site ATGATACCTAT)
recombinant barcode read abundance (log10): 0.186

CCTGGGACTTGGGTTCTAACCTGTTGCTA (site CCTGGGACTTA)
recombinant barcode read abundance (log10): 2.03

CCTGGTCCTTGGGTTCTAACCTGTTGCAT (site CCTGGACCTAA)
recombinant barcode read abundance (log10): 0.195

CCTGGTCCTTGGGTTCTAACCTGTTGCAT (site CCTGGTCCTAT)
recombinant barcode read abundance (log10): 1.42

CCTTAGTCTTGGGTTCTAACCTGTTGCAG (site ACATAGTCTCT)
recombinant barcode read abundance (log10): 0.169

CCTTAGTCTTGGGTTCTAACCTGTTGCAG (site CCTTAGTCTCT)
recombinant barcode read abundance (log10): 1.15

CCTTCCACTTGGGTTCTAACCTGTTGCCT (site ACTTCCACTAG)
recombinant barcode read abundance (log10): 0.00909

CCTTCCACTTGGGTTCTAACCTGTTGCCT (site CCTTCCACTAG)
recombinant barcode read abundance (log10): 0.285

CCTTCCACTTGGGTTCTAACCTGTTGCCT (site GCTTCCACTAG)
recombinant barcode read abundance (log10): 0.0418

CCTTCCACTTGGGTTCTAACCTGTTGCCT (site TCTTCCACTAG)
recombinant barcode read abundance (log10): 0.0607

CCTTCCTCTTGGGTTCTAACCTGTTGCCT (site CATTCCTCTAG)
recombinant barcode read abundance (log10): 0.018

CCTTCCTCTTGGGTTCTAACCTGTTGCCT (site CCTTCCTCTAG)
recombinant barcode read abundance (log10): 0.599

CCTTCCTCTTGGGTTCTAACCTGTTGCCT (site CGTTCCTCTAG)
recombinant barcode read abundance (log10): 0.0856

CCTTCCTCTTGGGTTCTAACCTGTTGCCT (site CTTTCCTCTAG)
recombinant barcode read abundance (log10): 0

CCTTGGACTTGGGTTCTAACCTGTTGCCT (site CCTTGCTCTAG)
recombinant barcode read abundance (log10): 0.084

CCTTGGACTTGGGTTCTAACCTGTTGCCT (site CCTTGGACTAG)
recombinant barcode read abundance (log10): 0.427

CCTTTGTCTTGGGTTCTAACCTGTTGCTT (site CCTTTGACTAA)
recombinant barcode read abundance (log10): 0.155

CCTTTGTCTTGGGTTCTAACCTGTTGCTT (site CCTTTGTCTAA)
recombinant barcode read abundance (log10): 0.243

CGAAAATCTTGGGTTCTAACCTGTTGCCT (site CGAAAATCTAG)
recombinant barcode read abundance (log10): 0.0664

CGAAAATCTTGGGTTCTAACCTGTTGCCT (site CGCAAATCTAG)
recombinant barcode read abundance (log10): 1.33

CGAAAATCTTGGGTTCTAACCTGTTGCCT (site CGGAAATCTAG)
recombinant barcode read abundance (log10): 0.18

CGAAAATCTTGGGTTCTAACCTGTTGCCT (site CGTAAATCTAG)
recombinant barcode read abundance (log10): 0.128

CGAAGCTCTTGGGTTCTAACCTGTTGCCT (site CGAAGCTCTAG)
recombinant barcode read abundance (log10): 1.44

CGAAGCTCTTGGGTTCTAACCTGTTGCCT (site CGCAGCTCTAG)
recombinant barcode read abundance (log10): 0.211

CGAAGCTCTTGGGTTCTAACCTGTTGCCT (site CGGAGCTCTAG)
recombinant barcode read abundance (log10): 0.108

CGAAGCTCTTGGGTTCTAACCTGTTGCCT (site CGTAGCTCTAG)
recombinant barcode read abundance (log10): 0.223

CGAATCCCTTGGGTTCTAACCTGTTGCCT (site CGAATCACTAG)
recombinant barcode read abundance (log10): 0.107

CGAATCCCTTGGGTTCTAACCTGTTGCCT (site CGAATCCCTAG)
recombinant barcode read abundance (log10): 0.809

CGAATCCCTTGGGTTCTAACCTGTTGCCT (site CGAATCGCTAG)
recombinant barcode read abundance (log10): 0.0332

CGAATCCCTTGGGTTCTAACCTGTTGCCT (site CGAATCTCTAG)
recombinant barcode read abundance (log10): 0.117

CGACATCCTTGGGTTCTAACCTGTTGCCT (site CGACATCCTAG)
recombinant barcode read abundance (log10): 0.214

CGACATCCTTGGGTTCTAACCTGTTGCCT (site CGAGATCCTAG)
recombinant barcode read abundance (log10): 0.409

CGACCGACTTGGGTTCTAACCTGTTGCAG (site CGACCGACTCT)
recombinant barcode read abundance (log10): 0.42

CGACCGACTTGGGTTCTAACCTGTTGCAG (site CGATCGACTCT)
recombinant barcode read abundance (log10): 0.158

CGACGTACTTGGGTTCTAACCTGTTGCCT (site CGACGTACTAG)
recombinant barcode read abundance (log10): 0.151

CGACGTACTTGGGTTCTAACCTGTTGCCT (site CGCCGTACTAG)
recombinant barcode read abundance (log10): 0.226

CGACGTACTTGGGTTCTAACCTGTTGCCT (site CGGCGTACTAG)
recombinant barcode read abundance (log10): 0.0649

CGACGTACTTGGGTTCTAACCTGTTGCCT (site CGTCGTACTAG)
recombinant barcode read abundance (log10): 0

CGACTGACTTGGGTTCTAACCTGTTGCCT (site CGACTGACTAG)
recombinant barcode read abundance (log10): 0.229

CGACTGACTTGGGTTCTAACCTGTTGCCT (site CGTCTGACTTG)
recombinant barcode read abundance (log10): 0.0517

CGACTGCCTTGGGTTCTAACCTGTTGCGT (site CGAATGTCTAC)
recombinant barcode read abundance (log10): 0.527

CGACTGCCTTGGGTTCTAACCTGTTGCGT (site CGACTGCCTAC)
recombinant barcode read abundance (log10): 2.09
